Our source for the IC50 values is patent publication EP4800012A1, “COMPOUND ACTING AS PARP7 INHIBITOR” (Dovetree Medicines Unus, Inc., priority 2023, dated 2025).

In test [1] the target is T1, PARP7 (Homo sapiens, UniProt Q7Z3E1).
T1 construct: purchased BPS 80527
T1 sequence (Q7Z3E1 1-657): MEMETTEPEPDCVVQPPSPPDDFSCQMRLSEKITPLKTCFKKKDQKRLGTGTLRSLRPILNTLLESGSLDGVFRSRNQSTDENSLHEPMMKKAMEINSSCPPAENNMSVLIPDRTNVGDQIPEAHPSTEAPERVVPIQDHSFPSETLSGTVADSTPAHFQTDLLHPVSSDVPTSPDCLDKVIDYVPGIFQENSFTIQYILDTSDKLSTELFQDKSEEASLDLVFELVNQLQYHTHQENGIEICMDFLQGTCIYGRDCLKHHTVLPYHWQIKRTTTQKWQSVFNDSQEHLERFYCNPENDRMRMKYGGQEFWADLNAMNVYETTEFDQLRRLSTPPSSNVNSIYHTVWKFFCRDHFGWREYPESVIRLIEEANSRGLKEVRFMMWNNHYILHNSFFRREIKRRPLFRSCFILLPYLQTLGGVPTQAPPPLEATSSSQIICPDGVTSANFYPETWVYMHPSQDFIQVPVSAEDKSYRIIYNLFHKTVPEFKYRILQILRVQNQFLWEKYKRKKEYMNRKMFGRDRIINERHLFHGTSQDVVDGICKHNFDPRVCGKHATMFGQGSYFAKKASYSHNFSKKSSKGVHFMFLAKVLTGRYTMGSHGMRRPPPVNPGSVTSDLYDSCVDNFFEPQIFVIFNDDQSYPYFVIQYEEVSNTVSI
Kind of test: Inhibition of the compound on PARP7 protein activity (ADP-ribosylation, chemiluminescence). In kind it is biochemical.

Test [2] concerns NCI-H1373 cells. Kind of test: Inhibition on NCI-H1373 cell proliferation (Cell-Titer-Glo). In kind it is cell-based. As to conditions: Homo sapiens, 144 h; NCI-H1373 cells, incubation for 6 days, Cell-Titer-Glo; read-out: NCI-H1373 cell proliferation inhibition IC50. The protocol: The inhibitory effect of the compound on PARP7 was evaluated by testing the inhibitory effect of the compound on NCI-H1373 cell proliferation.
NCI-H1373 cells (ATCC, CRL-5866) were cultured in a complete medium, namely, a RPMI-1640 medium (Gibco, 22400089) containing 10% fetal bovine serum (Corning, 35-081-CV).
Negative control wells and positive control wells were added with 50 nL DMSO (Sigma, D2650), respectively.
In "Day 0" detection plate, NCI-H1373 cells were seeded at a density of 600 cells/well (50 µL) in a complete medium into the Day 0 test wells of a 384-well detection plate (Grenier, 781091). Then, 25 µL of Cell-Titer-Glo reagent (Promega, G7573) was added to each well, followed by centrifugation at 1000 rpm at room temperature for 1 minute and incubation at room temperature under shaded conditions for 10 min. Chemiluminescence signals were collected using an Envision (Perkin Elmer, EnVision 2105) to obtain the average value of the Day 0 test values.
In "compound detection plate", NCI-H1373 cells were seeded at a density of 600 cells/well (50 µL) in a complete medium into the negative control wells and the compound detection wells of a 384-well detection plate (Grenier, 781091), and 50 µL of cell culture medium was added to the positive control wells, followed by centrifugation at 1000 rpm at room temperature for 1 minute and placing in a cell incubator at 37°C, 5% CO2 for incubation for 6 days. […] Chemiluminescence signals were collected using an Envision (Perkin Elmer, EnVision 2105). The test values for each compound well, negative control well, and positive control well were obtained.
The proliferation inhibition ratio formula is as follows: [formula]
The average value of the negative control = the average value of the Day 6 test values of each negative control well minus the average value of the Day 0 test values
The average value of the positive control = the average value of the Day 6 test values of each positive control well
The average value of the compound test = (the Day 6 test value of compound test well 1 + the Day 6 test value of compound test well 2)/2 - the average value of the Day 0 test values

Test [3] deals with T1, PARP7. Kind of test: PARP7 TR-FRET binding inhibition (displacement of probe RBN011147). As for the experimental part: The ability of the compound to substitute the probe RBN011147 (Wigle et al., 2020, Cell Chemical Biology 27, 877-887) was tested by a TR-FRET method, and IC50 was calculated to evaluate the binding ability of the compound to PARP7. […]
For orientation: TR-FRET usually uses a lanthanide donor and a delayed reading to cut background.

Where [4] appears, read: Histone H1 coated plate, Biotin-Labeled NAD+, 2 h at room temperature, chemiluminescence, read-out: PARP7 activity inhibition IC50.
Setting [5] is: TR-FRET, Biotin-labeled probe RBN011147, read-out: PARP7 binding inhibition IC50.

For `CC(CCCNC(=O)c1ccc(-c2ncc(C(F)(F)F)cn2)cc1O)Nc1cn[nH]c(=O)c1C(F)(F)F` (stereo not drawn) [Example 1], the values for the IC50 in test [1] (setting [4]), in test [2] and in test [3] (setting [5]) were less than 3 nM, 1000 to 3000 nM and less than 10 nM, respectively.
On the same counts, the results for `CC(CCCNC(=O)c1ccc(-c2ncc(C(F)(F)F)cn2)cc1F)Nc1cn[nH]c(=O)c1C(F)(F)F` (stereo not drawn) [Example 2] are less than 3 nM, 300 to 1000 nM and less than 10 nM.
On the same counts, the results for `CC(CCCNC(=O)c1ccc(-c2ncc(C(F)(F)F)cn2)cc1)Nc1cn[nH]c(=O)c1C(F)(F)F` (stereo not drawn) [Example 3] are less than 3 nM, 300 to 1000 nM and less than 10 nM.
With `CC(CCCNC(=O)c1cccc2c1CCN2c1ncc(C(F)(F)F)cn1)Nc1cn[nH]c(=O)c1C(F)(F)F` (stereo not drawn) [Example 5], the IC50 in test [1] (setting [4]) is less than 3 nM; in test [2] it was more than 3000 nM; in test [3] (setting [5]), 10 to 30 nM.
Take `CC(CCNC(=O)c1cccc2c1[nH]c(=O)n2-c1ncc(C(F)(F)F)cn1)Nc1cn[nH]c(=O)c1C(F)(F)F` (stereo not drawn) [Example 6]: the values for the IC50 in test [1] (setting [4]), in test [2] and in test [3] (setting [5]) were 10 to 30 nM, more than 3000 nM and 30 to 100 nM, respectively.
On the same counts, the results for `CC(CCCN1C(=O)c2ccc(-c3ncc(C(F)(F)F)cn3)cc2C1=O)Nc1cn[nH]c(=O)c1C(F)(F)F` (stereo not drawn) [Example 9] are less than 3 nM, more than 3000 nM and less than 10 nM.
On the same counts, the results for `Cc1c(CCC(=O)Nc2ccc(-c3ncc(C(F)(F)F)cn3)cn2)c[nH]c(=O)c1C(F)(F)F` [Example 13] are less than 3 nM, more than 3000 nM and 30 to 100 nM.
On the same counts, the results for `CC(CCCNC(=O)c1ccc(-c2ncc(N3CCOCC3)cn2)cc1)Nc1cn[nH]c(=O)c1C(F)(F)F` (stereo not drawn) [Example 14] are less than 3 nM, more than 3000 nM and less than 10 nM.
In the case of `CC(CCCNC(=O)c1ccc(-c2ncc(N3CCOCC3)s2)cc1)Nc1cn[nH]c(=O)c1C(F)(F)F` (stereo not drawn) [Example 15], the IC50 in test [1] (setting [4]) was 3 to 10 nM; in test [2] it was more than 3000 nM; in test [3] (setting [5]), 10 to 30 nM.
In the case of `CC(CCCNC(=O)c1ccc(-c2ncc(N3CC(F)C3)s2)cc1)Nc1cn[nH]c(=O)c1C(F)(F)F` (stereo not drawn) [Example 16], the IC50 was 3 to 10 nM in test [1] (setting [4]), more than 3000 nM in test [2] and 10 to 30 nM in test [3] (setting [5]).
On the same counts, the results for `CC(CCCNC(=O)c1ccc(-c2cc(-c3cccnc3)sn2)cc1)Nc1cn[nH]c(=O)c1C(F)(F)F` (stereo not drawn) [Example 18] are less than 3 nM, 300 to 1000 nM and less than 10 nM.
On the same counts, the results for `CC(CCCNC(=O)c1ccc(-c2ncc(C3CC3)s2)cc1)Nc1cn[nH]c(=O)c1C(F)(F)F` (stereo not drawn) [Example 19] are less than 3 nM, 300 to 1000 nM and less than 10 nM.
As to `CC(CCCNC(=O)c1ccc(-c2ncc(N3CC(F)C3)cn2)cc1)Nc1cn[nH]c(=O)c1C(F)(F)F` (stereo not drawn) [Example 20], the IC50 in test [1] (setting [4]) was less than 3 nM; in test [2], 1000 to 3000 nM; in test [3] (setting [5]), less than 10 nM.
On the same counts, the results for `COc1cnc(-c2ccc(C(=O)NCCCC(C)Nc3cn[nH]c(=O)c3C(F)(F)F)c(F)c2)s1` (stereo not drawn) [Example 21] are less than 3 nM, 1000 to 3000 nM and less than 10 nM.
Regarding `COc1cnc(-c2ccc(C(=O)NCCCC(C)Nc3cn[nH]c(=O)c3C(F)(F)F)cc2)s1` (stereo not drawn) [Example 22], the figures for the IC50 in test [1] (setting [4]), in test [2] and in test [3] (setting [5]) were less than 3 nM, 1000 to 3000 nM and 10 to 30 nM, respectively.
On the same counts, the results for `CC(CCCNC(=O)c1ccc(-c2ncc(C(F)F)s2)cn1)Nc1cn[nH]c(=O)c1C(F)(F)F` (stereo not drawn) [Example 23] are less than 3 nM, 300 to 1000 nM and 10 to 30 nM.
With `CC(CCCNC(=O)c1cnc(-c2ncc(C(F)F)s2)cn1)Nc1cn[nH]c(=O)c1C(F)(F)F` (stereo not drawn) [Example 25], the IC50 in test [1] (setting [4]) was less than 3 nM; in test [2], 1000 to 3000 nM; in test [3] (setting [5]) it was less than 10 nM.
On the same counts, the results for `CC(CCCNC(=O)c1cnc(-c2ncc(C(F)(F)F)s2)cn1)Nc1cn[nH]c(=O)c1C(F)(F)F` (stereo not drawn) [Example 26] are less than 3 nM, 1000 to 3000 nM and less than 10 nM.
On the same counts, the results for `COc1cnc(-c2ccc(C(=O)NCCCC(C)Nc3cc[nH]c(=O)c3C(F)(F)F)c(F)c2)s1` (stereo not drawn) [Example 27] are less than 3 nM, more than 3000 nM and 10 to 30 nM.
As to `CC(CCCNC(=O)c1ccc(-c2ncc(C(F)F)s2)cn1)Nc1cn[nH]c(=O)c1C#N` (stereo not drawn) [Example 28], the values for the IC50 in test [1] (setting [4]), in test [2] and in test [3] (setting [5]) were 30 to 100 nM, more than 3000 nM and more than 100 nM, respectively.
On the same counts, the results for `CC(CCCNC(=O)c1ccc(-c2ncc(C(F)F)s2)cn1)Nc1cc[nH]c(=O)c1C(F)(F)F` (stereo not drawn) [Example 29] are less than 3 nM, more than 3000 nM and 10 to 30 nM.
On the same counts, the results for `Cc1cnc(-c2cnc(C(=O)NCCCC(C)Nc3cc[nH]c(=O)c3C(F)(F)F)cn2)s1` (stereo not drawn) [Example 30] are 3 to 10 nM, more than 3000 nM and 30 to 100 nM.
On the same counts, the results for `CC(CCCNC(=O)c1cnc(-c2ncc(C(F)(F)F)s2)cn1)Nc1cc[nH]c(=O)c1C(F)(F)F` (stereo not drawn) [Example 31] are less than 3 nM, more than 3000 nM and 10 to 30 nM.
Consider `CC(CCCNC(=O)c1cnc(-c2ncc(C(F)F)s2)cn1)Nc1cc[nH]c(=O)c1C(F)(F)F` (stereo not drawn) [Example 32], for which the IC50 was less than 3 nM in test [1] (setting [4]), more than 3000 nM in test [2] and 10 to 30 nM in test [3] (setting [5]).
On the same counts, the results for `Cc1cc(NC(C)CCCN(C)C(=O)c2cnc(-c3ncc(C(F)(F)F)cn3)cn2)c(C#N)c(=O)[nH]1` (stereo not drawn) [Example 34] are 30 to 100 nM, more than 3000 nM and more than 100 nM.
With `Cc1cc(NC(C)CCCNC(=O)c2cnc(-c3ncc(C(F)(F)F)cn3)cn2)c(C#N)c(=O)[nH]1` (stereo not drawn) [Example 35], the IC50 in test [1] is 10 to 30 nM; in test [2] it was more than 3000 nM; in test [3] it was 30 to 100 nM.
Regarding `CC(CCCNC(=O)c1cnn(-c2ncc(C(F)(F)F)cn2)c1)Nc1cn[nH]c(=O)c1C(F)(F)F` (stereo not drawn) [Example 38], the IC50 in test [1] (setting [4]) was less than 3 nM; in test [2], more than 3000 nM; in test [3] (setting [5]), less than 10 nM.
`CC(CCCNC(=O)c1cc(-c2ncc(C(F)(F)F)cn2)on1)Nc1cn[nH]c(=O)c1C(F)(F)F` (stereo not drawn) [Example 39]: the values for the IC50 in test [1] (setting [4]), in test [2] and in test [3] (setting [5]) were less than 3 nM, 300 to 1000 nM and less than 10 nM, respectively.
Take `CCOc1cnc(-c2ccc(C(=O)NCCCC(C)Nc3cn[nH]c(=O)c3C(F)(F)F)cc2)s1` (stereo not drawn) [Example 40]: the IC50 in test [1] (setting [4]) is less than 3 nM; in test [2] it was more than 3000 nM; in test [3] (setting [5]) it was 10 to 30 nM.
On the same counts, the results for `CCCc1cnc(-c2ccc(C(=O)NCCCC(C)Nc3cn[nH]c(=O)c3C(F)(F)F)cc2)s1` (stereo not drawn) [Example 41] are less than 3 nM, 300 to 1000 nM and 10 to 30 nM.
On the same counts, the results for `CC#Cc1cnc(-c2ccc(C(=O)NCCCC(C)Nc3cn[nH]c(=O)c3C(F)(F)F)cc2)s1` (stereo not drawn) [Example 42] are less than 3 nM, more than 3000 nM and 30 to 100 nM.
